From patent US20220074923A1, “METHODS OF IDENTIFYING PARKIN-MEDIATED MITOPHAGY ACTIVATING AGENTS” (THE GOVERNING COUNCIL OF THE UNIVERSITY OF TORONTO, priority 2018, published 2022)

Assays:
HEK293 GFP Parkin cells = experiment: Parkin recruitment assay; type: cell-based
Experimental: HEK293 GFP Parkin cells were seeded into 12-well plates containing coverslips. Cells were treated with small molecules for 2 hours prior to mitophagy induction with 10 μM CCCP, unless indicated otherwise. Following fixation with 4% PFA, immunostaining was carried out using anti-ATP5A primary antibody and anti-mouse Alex Fluor 568.
To measure the percentage of cells with Parkin localized to mitochondria a 2 step process was employed: (1) whole cell segmentation based on GFP Parkin using CellProfiler software and (2) classification into Parkin distribution subpopulation using CellProfiler Analyst. The percentage of cells with Parkin localized to mitochondria was determined in each image. Images were taken at 20× magnification for this experiment, resulting in the classification of at least 300 cells in each treatment group per trial.

HK2 = HK2 mitochondrial fraction and phosphorylation (fractionation, Phos-tag immunoblot); type: cell-based
Experimental: (a) SH-SY5Y treated with either 0.5 μM SR3677 or with DMSO were separated into total cell cytosolic and mitochondrial fractions. Fractions were separated by SDS-PAGE and immunoblotting was performed with anti-HK2 and anti-ATP5A antibodies. (b) The proposed mechanism through which SR3677 increases Parkin recruitment. (c) Cells serum-starved for 2 hours were treated with either DMSO or SR3677 for 10 or 30 minutes prior to harvesting. Lysates were separated by SDS-PAGE and immunoblotting was performed with anti-HK2 and anti-actin antibodies. Samples were also run on Phos-tag gels in parallel and immunoblotting was performed with anti-HK2 antibody. (d) Densitometry analysis was performed to quantify HK2 levels in each sample, followed by (e) normalization to mitochondrial marker, CValpha. Average HK2/CValpha ratios are plotted (n=2 independent experiments). (f) Densitometry analysis was performed on the band indicated by the arrow in (c). The average intensity of the indicated band normalized to actin loading control is expressed[…] (n=3 independent experiments). P-values were determined by paired student's t-test for (b, f), *P<0.05. All error bars represent s.e.m. […]

Canton(S) flies = type: in vivo, Drosophila
Experimental: Fresh vials containing standard fly food supplemented with the indicated treatments were changed out every 2 days. The number of flies surviving each day was counted and log-rank tests were performed to determine statistical significance. […] The number of flies to climb beyond 9.5 cm every 10 seconds was assessed. The percentage of flies in each treatment to cross this line was determined. The climbing ability of each treatment was normalized to the control group treated with water only. […] Log-rank tests were performed to determine p-values for survival analyses (a, b, g), *P<0.05. P-values were determined by one-tailed paired student's t-test for all climbing assays (c-e, h), *P<0.05. Data is expressed as mean±s.e.m. All error bars represent s.e.m
Drosophila aged 7 days are fed food supplemented with either water (control), 1 mM SR3677, 10 mM paraquat or SR3677 in combination with paraquat. The survival of flies was recorded each day following administration of the treatments and climbing abilities were tested every 2 days by performing negative geotaxis assays.
Male Canton(S) Drosophila were aged 7 days prior to feeding with standard fly food supplemented with water, 10 mM paraquat, 1 mM SR3677, or with combinations of these chemicals. Flies were placed into new vials containing fresh food supplemented with the treatments previously administered and 2 days later, climbing assays were performed. Flies were placed into plastic cylinder vials and tapped down, so all flies fell to the bottom. The number of flies to climb beyond 12.5 cm was counted every 10 s and values are represented as the percentage of total flies in each treatment group.

TH-GAL4>UAS-mitoQC flies = experiment: In vivo mitoQC assay in dopaminergic neurons; design: species or system Drosophila; conditions: SR3677 with sublethal paraquat dose (1 mM), 7 days, vs water
Experimental: Cells were treated with 50 μM chloroquine for 16 hours prior to addition of E64, leupeptin, SR3677 and CCCP in the indicated treatment group. For the in vivo mitoQC assays, 5 7-day old male TH-GAL4>UAS-mitoQC were placed into vials containing water (control), sublethal 1 mM paraquat, 1 mM SR3677 alone and in combination with paraquat for 7 days. Whole flies were then fixed overnight in 1% PFA and 0.1% Tx-100. Fly brains were then dissected and fixed with 4% PFA for 20 minutes. 3 10-minute PBS washes were performed in between each step. Fly brains were mounted in VectaShield™ mounting medium for imaging using the Zeiss LSM700 confocal fluorescence microscope with 40× 1.4 NA Oil Plan-APOCRAMAT objective and the appropriate lasers and filter. 0.8 μm z-stacks were acquired to capture dopaminergic neurons expressing the mitoQC transgene. Laser settings were kept constant within each trial. At least 2 fly brains were imaged for each treatment across 4 independent trials.
The mitoQC assay may also be performed in Drosophila to quantify mitophagy specifically in cell types of interest using the GAL4/UAS system. Briefly, the mitoQC transgene was expressed in dopaminergic neurons using the TH-GAL4 driver^41. Since CCCP cannot be administered without affecting the viability of the flies, 7-day old flies were fed the parkinsonian toxin, paraquat. […]

[1] = test system: heteroplasmic mt:Col^T300l flies; experiment: Survival and climbing of heteroplasmic mt:CoI T300I flies; type: in vivo, Drosophila
Experimental: Finally, SR3677 in an alternate, genetic model of mitochondrial dysfunction was tested. Specifically, flies with a temperature-sensitive, de-stabilizing mutation in cytochrome c oxidase subunit I (mt:Col^T300l) were used. This mutation causes depolarization of the mitochondrial membrane potential and increased mitochondrial reactive oxygen species^44, manifesting in systemic consequences such as impaired climbing and survival. Flies with this mutation in 100% of their mitochondrial genomes, or homoplasmic flies, only survive 4 days post-eclosion. In order to extend our therapeutic window, SR3677 in heteroplasmic flies which contain this temperature-sensitive mutation in approximately 90% of their mtDNA instead^47 was tested. These flies retain the same phenotypes as homoplasmic flies, including reduced survival and climbing ability although to a less severe extent (FIG. 7).
Immediately following eclosion, male heteroplasmic mt:Col^T300l flies were transferred to vials containing either water, 1 or 2 mM SR3677. Newly eclosed Canton(S) male flies were placed into fresh vials and referenced as a control for these experiments and flies were raised at non-permissive 29° C. for these experiments. […]

ROCK2 = ROCK2 (Homo sapiens, UniProt O75116); conditions: biochemical and cell-based assays, previous studies; cited from earlier work
ROCK2, sequence (O75116 whole entry): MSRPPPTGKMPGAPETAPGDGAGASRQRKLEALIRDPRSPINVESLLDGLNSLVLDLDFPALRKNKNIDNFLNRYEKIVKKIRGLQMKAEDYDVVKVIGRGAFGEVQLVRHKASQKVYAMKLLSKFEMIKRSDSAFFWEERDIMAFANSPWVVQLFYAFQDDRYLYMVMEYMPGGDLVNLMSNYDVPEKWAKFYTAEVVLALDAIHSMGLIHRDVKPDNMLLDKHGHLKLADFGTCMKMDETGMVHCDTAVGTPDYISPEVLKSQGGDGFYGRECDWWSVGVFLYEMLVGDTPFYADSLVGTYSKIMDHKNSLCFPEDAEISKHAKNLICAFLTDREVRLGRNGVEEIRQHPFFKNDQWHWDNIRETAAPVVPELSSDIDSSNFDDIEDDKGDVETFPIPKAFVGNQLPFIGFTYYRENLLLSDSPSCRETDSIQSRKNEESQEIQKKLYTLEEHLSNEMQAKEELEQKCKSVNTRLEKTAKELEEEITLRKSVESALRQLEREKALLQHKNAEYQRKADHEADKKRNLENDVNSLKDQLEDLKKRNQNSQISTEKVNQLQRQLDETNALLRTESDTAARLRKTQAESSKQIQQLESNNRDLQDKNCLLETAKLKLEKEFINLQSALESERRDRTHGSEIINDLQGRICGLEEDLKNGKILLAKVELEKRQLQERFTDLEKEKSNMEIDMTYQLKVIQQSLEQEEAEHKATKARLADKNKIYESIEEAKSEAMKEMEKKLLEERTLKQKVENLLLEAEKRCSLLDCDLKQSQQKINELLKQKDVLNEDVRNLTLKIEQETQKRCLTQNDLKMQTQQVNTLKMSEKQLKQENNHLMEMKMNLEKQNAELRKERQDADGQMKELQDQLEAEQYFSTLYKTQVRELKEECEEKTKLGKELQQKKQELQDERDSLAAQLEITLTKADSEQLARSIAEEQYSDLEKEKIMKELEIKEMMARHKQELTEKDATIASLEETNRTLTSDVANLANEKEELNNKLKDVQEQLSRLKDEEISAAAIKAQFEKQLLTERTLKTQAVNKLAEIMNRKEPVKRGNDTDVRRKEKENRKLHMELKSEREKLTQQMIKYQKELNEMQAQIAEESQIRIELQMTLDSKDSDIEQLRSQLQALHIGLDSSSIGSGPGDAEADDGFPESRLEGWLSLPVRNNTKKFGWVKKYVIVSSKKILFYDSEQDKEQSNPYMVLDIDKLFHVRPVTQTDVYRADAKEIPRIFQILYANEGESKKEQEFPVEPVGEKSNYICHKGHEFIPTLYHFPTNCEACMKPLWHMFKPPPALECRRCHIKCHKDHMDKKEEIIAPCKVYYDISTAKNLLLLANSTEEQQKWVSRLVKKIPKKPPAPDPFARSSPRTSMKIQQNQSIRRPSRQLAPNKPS

Compound: CN(C)CCOc1cc(-c2cn[nH]c2)ccc1NC(=O)[C@@H]1COc2ccccc2O1 [SR3677]
- Parkin recruitment to damaged mitochondria (HEK293 GFP Parkin cells; 0.5 μM, 17 hour and 2 hour pre-incubation, CCCP): increased Parkin recruitment to damaged mitochondria
- EC50 (HEK293 GFP Parkin cells; Homo sapiens, HEK293, 2 h pre-treatment, then 10 μM CCCP 1 h, read-out: EC50, percentage of cells with mitochondrial Parkin): 57 nM
- Parkin distribution in the absence of CCCP (HEK293 GFP Parkin cells; compound alone): diffuse
- concentration at which the maximal effect on Parkin recruitment was achieved (HEK293 GFP Parkin cells; dose series, CCCP): ≤ 0.5 µM
- HK2 in the mitochondrial fraction (HK2; SH-SY5Y cells, 0.5 μM): More HK2 was observed in the mitochondrial fraction
- phosphorylation of HK2 (Phostag gels) (HK2; serum-starved cells, 10 or 30 minutes): Increased phosphorylation of HK2
- survival of flies, compound alone (Canton(S) flies; 1 mM SR3677 in food): does not affect survival of flies
- survival of flies challenged with paraquat (Canton(S) flies; 1 mM SR3677 with 10 mM paraquat in food): significantly improved viability of flies
- percentage of red-only mitochondrial signal over the total mitochondrial signal (TH-GAL4>UAS-mitoQC flies): greater than flies whose food was supplemented with water
- survival ([1]; 1 mM and 2 mM in fly food, 29° C.): equally improved
- climbing ability ([1]; 2 mM in fly food, 7 days): improved
- ROCK2 inhibition (ROCK2): selectively inhibits ROCK2
